Measurements reported in paper doi:10.1101/2023.03.18.532921v1 (biorxiv, 2023).

Molecular target: dA (isolated discontinuous domain A of LAO) (Salmonella enterica, UniProt P02911, DEL114-206)
Assay: biochemical

N=C(N)NCCC[C@H](N)C(=O)O [L-arginine] gave a Kd of 131 µM.
